Values after ≈ are worked out from the molar mass of the structure shown.

A word on the solubility: it is the dissolved amount per volume that the medium holds. Broadly, the LogP is the decadic logarithm of the partition coefficient of the neutral form, usually between octanol and water.

Data set [1] is described as follows: physchem. Type of data set: physicochemical. The note with it: 37 °C, pH 6.5, fassif, thermodynamic from solid, apparent solubility. As to the method: Excess powder (at least 2‐3 times the expected equilibrium solubility) was added to 10 mL preheated simulated intestinal fluids, and the dissolution was monitored until a plateau was reached. […] This is in line with previously reported observations.^[ [26], [27] ^] […] This is likely because of the neutral and more lipophilic properties of felodipine (Table 1), where it is expected to see a larger benefit of the solubilization properties of the formed micelles.
The dissolution and apparent solubilities of two poorly water‐soluble drugs, indomethacin and felodipine, were determined in the simulated intestinal fluids using a MicroDISS Profiler (pION Inc Ltd, East Sussex, UK). In each experiment (n ≥ 3), excess powder (at least 2‐3 times) compared to the expected solubility value was added to 10 mL simulated intestinal fluid. The experiments were performed at 37 °C using a stirring rate of 150 rpm, while the samples were scanned by individual UV probes every 10–30 s. […] The concentrations were determined based on the area under the curve in second derivative spectra evaluated over a range of wavelengths. […] The hydrodynamic size of the simulated intestinal fluids and drugs dissolved in the different simulated intestinal fluids was determined using a Malvern Zetasizer Nano ZSP (Malvern Instruments, Worcestershire, UK) with single‐use disposable microcuvettes. […]

Details of data set [2]: method as in PMID 20507160. Conditions: cited from earlier work.
For data set [3] the following is noted: cited from earlier work.

As for `CCOC(=O)C1=C(C)NC(C)=C(C(=O)OC)C1c1cccc(Cl)c1Cl` (stereo not drawn) [Felodipine, felodipine], the solubility in data set [1] is 49.3 ± 1.9 µg/mL (≈ 128 µM). In data set [2], the LogP is recorded as 5.58 and the “Charge (pH 6.5)” value is recorded as 0.
Take `C[C@H](CCC(=O)NCCS(=O)(=O)O)[C@H]1CC[C@H]2[C@@H]3[C@H](O)C[C@@H]4C[C@H](O)CC[C@]4(C)[C@H]3C[C@H](O)[C@]12C` [Taurocholic acid, taurocholic acid]: the CMC in data set [3] is 3 to 8 mM.
Take `COc1ccc2c(c1)c(CC(=O)O)c(C)n2C(=O)c1ccc(Cl)cc1` [Indomethacin, indomethacin]: in data set [2], the log partition coefficient (LogP) is recorded as 3.51 and the “Charge (pH 6.5)” value is −1.
